Measurements as given in patent publication US10280198B2, “Therapeutic agents for reducing parathyroid hormone levels” (KAI PHARMACEUTICALS, INC., priority 2009, dated 2019).
Read-outs that look alike come from different tables or passages of the source. Square brackets hold non-standard residues; d marks the D form. Peptide text beside a SMILES is read from it. βAla = NCCC(=O)O

Key:
plasma PTH = assay: In vivo PTH lowering after IV bolus in isoflurane-anesthetized normal Sprague Dawley rats; design: species or system rat; details: for % PTH reduction of baseline at 1 hour post IV admin. of 0.5 mg/kg compound: isoflurane-anesthetized normal rats, 0.5 mg/kg IV
Outline: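 Peptides were given as a 0.5 mg/kg IV bolus to normal Sprague Dawley rats kept under isoflurane throughout, with saline bolus controls.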

[1] = tested on: rat peritoneal mast cells; assay: In vitro histamine induction in rat peritoneal mast cells; type: cell-based
Outline: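 Mast cells from peritoneal lavage of Sprague Dawley rats were incubated with compound at 10 μM for 15 min at 37 °C in HBSS + 25 mM HEPES pH 7.4. Supernatant histamine measured by EIA; response expressed as fold change versus pre-incubation levels.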

[2] = biological target: T1, human calcium-sensing receptor (CaSR) (Homo sapiens, UniProt P41180); assay: In vitro cell assay in HEK-293 expressing the human calcium-sensing receptor (IP1 production); type: cell-based
T1 construct: expressed in transfected cells; host or cells: HEK 293T cells, transiently transfected (lipofectamine 2000); in some cases HEK293 cells stably transfected
T1 sequence (P41180 20-1078): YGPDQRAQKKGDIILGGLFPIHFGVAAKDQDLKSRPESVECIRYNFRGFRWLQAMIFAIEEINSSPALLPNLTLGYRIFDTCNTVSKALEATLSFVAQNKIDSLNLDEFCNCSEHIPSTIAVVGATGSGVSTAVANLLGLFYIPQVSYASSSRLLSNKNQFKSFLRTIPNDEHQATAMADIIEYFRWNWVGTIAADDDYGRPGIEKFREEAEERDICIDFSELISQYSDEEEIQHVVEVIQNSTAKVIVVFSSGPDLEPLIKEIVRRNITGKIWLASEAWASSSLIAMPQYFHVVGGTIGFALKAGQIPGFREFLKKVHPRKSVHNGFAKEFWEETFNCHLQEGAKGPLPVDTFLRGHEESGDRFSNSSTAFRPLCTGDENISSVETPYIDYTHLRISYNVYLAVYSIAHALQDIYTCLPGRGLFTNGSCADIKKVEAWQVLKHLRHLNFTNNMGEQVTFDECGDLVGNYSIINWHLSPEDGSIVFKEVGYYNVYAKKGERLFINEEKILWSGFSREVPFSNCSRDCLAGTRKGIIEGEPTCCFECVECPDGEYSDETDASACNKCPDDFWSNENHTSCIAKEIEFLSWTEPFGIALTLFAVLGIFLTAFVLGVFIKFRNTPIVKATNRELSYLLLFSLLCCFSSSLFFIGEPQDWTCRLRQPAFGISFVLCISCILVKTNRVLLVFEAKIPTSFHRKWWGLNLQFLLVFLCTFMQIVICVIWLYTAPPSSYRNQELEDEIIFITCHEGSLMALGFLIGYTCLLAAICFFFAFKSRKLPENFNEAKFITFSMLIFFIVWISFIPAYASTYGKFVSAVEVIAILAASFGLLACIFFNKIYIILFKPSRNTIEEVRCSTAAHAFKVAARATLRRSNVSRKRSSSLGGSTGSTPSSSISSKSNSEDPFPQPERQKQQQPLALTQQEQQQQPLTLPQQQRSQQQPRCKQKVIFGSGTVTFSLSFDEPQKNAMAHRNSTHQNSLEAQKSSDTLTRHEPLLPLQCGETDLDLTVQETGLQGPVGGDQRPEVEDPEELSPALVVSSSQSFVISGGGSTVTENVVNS
Method: The activity of a variety of peptides and conjugates was tested against the human CaSR. These studies were conducted by measuring IP1 production in HEK293 cells that express the human CaSR. Each peptide was tested in eight different concentrations, in duplicates, to establish a dose response curve. Curve fitting was performed using GraphPad Prism. In Table 5, and throughout the specification, residues provided in capital letters are L-amino acids, while lower case letters indicate D-amino acids. “Ac” indicates an acetyl capping group, “NH2” indicates an amide capping group, “Ac-bAla” is an acetylated beta-alanine, “GSH” indicates reduced glutathione, “GS” indicates oxidized glutathione, “PEG” refers to polyethylene glycol, “PEG2” and “PEGS” refer to polyethylene glycol moieties of 2 kDa and 5 kDa, respectively, and “Mpa” refers to mercaptopropionic acid.
The day after, these cells were transfected with human CaSR receptor using lipofectamine 2000 transfection reagent 24 hrs post transfection, cells were seeded in 384 well plates at 8,000 cells/well. […] In some cases, EC50 values were determined by measuring inositol monophosphate production in the HEK293 cells, stably transfected with the human calcium-sensing receptor (see Table 1).
Cells were incubated with compounds at various concentrations (1 mM or 300 μM as the highest and further ½ log serial dilutions) at 37° C. for 1.5 hrs before reaction termination. […] In brief, incubation with the compound was terminated by sequentially adding D2 labeled-IP1 and cryptate-labeled anti-IP1 in lysis buffer and further incubating at room temperature for 60 minutes. […] Non-transfected 293 cells were used as negative control.
IP1 concentrations were calculated from standard curves (generated with Graph Pad Prism ver. 4) using known concentrations of IP1 standards.

[3] = Table 6, normal rats, AUC 1-4 h
[4] = Table 5, IP1 production in HEK293 cells expressing human CaSR, eight concentrations in duplicate, read-out: EC50 in CaSR in vitro assay
[5] = Table 1, normal rats, PTH at 1, 2, 3, 4 h, AUCcmpd treated/AUCsaline control*100
[6] = Table 1, IP1 in HEK293 cells expressing human CaSR, read-out: In vitro EC50
[7] = Table 3, normal rats, AUC 1-4 h

Molecule | Histamine in vitro Fold change of non-treated at 10 uM [1] | EC50 [2, 4] | other results
CC(=O)N[C@H](CS)C(=O)N[C@H](C)C(=O)N[C@H](CCCNC(=N)N)C(=O)N[C@H](CCCNC(=N)N)C(=O)N[C@H](CCCNC(=N)N)C(=O)N[C@H](CCC(=O)O)C(=O)N[C@H](CCCNC(=N)N)C(N)=O [SEQ ID NO: 68, Ac-carrrer-NH2] (Ac-[dC][dA][dR][dR][dR][dE][dR]-NH2) | 1.3 fold | 62 µM | 0.5 mg/kg IV bolus % PTH AUC of saline control (plasma PTH; [3]): 81%
CC(=O)N[C@H](CSSCCC(=O)O)C(=O)N[C@H](C)C(=O)N[C@H](CCCNC(=N)N)C(=O)N[C@H](CCCNC(=N)N)C(=O)N[C@H](CCCNC(=N)N)C(=O)N[C@H](C)C(=O)N[C@H](CCCNC(=N)N)C(N)=O [SEQ ID NO: 56, Ac-c(Mpa)arrrar-NH2] |  | 21 µM | 0.5 mg/kg IV bolus % PTH AUC of saline control (plasma PTH; Table 8, normal rats, AUC 1-4 h): 25%
CC(=O)N[C@H](C)C(=O)N[C@H](CCCNC(=N)N)C(=O)N[C@H](CCCNC(=N)N)C(=O)N[C@H](CCCNC(=N)N)C(=O)N[C@H](C)C(=O)N[C@H](CCCNC(=N)N)C(N)=O [SEQ ID NO: 29, Ac-arrrar-NH2] (Ac-[dA][dR][dR][dR][dA][dR]-NH2) |  | > 1000 µM | PTH-lowering activity in normal rats (plasma PTH; 9 mg/kg IV bolus, FIG. 2B): did not reduce PTH concentration; potency to activate the human CaSR in vitro ([2]; HEK-293 cell assay): dramatically reduced the ability of the compound to activate the CaSR
CC(=O)N[C@@H](CS)C(=O)N[C@@H](Cc1ccc(O)cc1)C(=O)NCC(=O)N[C@@H](CCCNC(=N)N)C(=O)N[C@@H](CCCCN)C(=O)N[C@@H](CCCCN)C(=O)N[C@@H](CCCNC(=N)N)C(=O)N[C@@H](CCCNC(=N)N)C(=O)N[C@@H](CCC(N)=O)C(=O)N[C@@H](CCCNC(=N)N)C(=O)N[C@@H](CCCNC(=N)N)C(=O)N[C@@H](CCCNC(=N)N)C(N)=O [SEQ ID NO: 47] |  | 4.5 µM | 
CC(=O)N[C@H](CS)C(=O)N[C@H](C)C(=O)N[C@H](CCCNC(=N)N)C(=O)N[C@H](C)C(=O)N[C@H](CCCNC(=N)N)C(=O)N[C@H](C)C(=O)N[C@H](CCCNC(=N)N)C(=O)N[C@H](C)C(=O)N[C@H](CCCNC(=N)N)C(N)=O [SEQ ID NO: 78, Ac-carararar-NH2] (Ac-[dC][dA][dR][dA][dR][dA][dR][dA][dR]-NH2) |  | 5.3 µM | 
CC(=O)N[C@H](CS)C(=O)N[C@H](C)C(=O)N[C@H](CCCCN)C(=O)N[C@H](CCCNC(=N)N)C(=O)N[C@H](CCCNC(=N)N)C(=O)N[C@H](C)C(=O)N[C@H](CCCNC(=N)N)C(N)=O [SEQ ID NO: 72, Ac-cakrrar-NH2] (Ac-[dC][dA][dK][dR][dR][dA][dR]-NH2) | 1.1 fold | 35 µM | 
CC(=O)N[C@H](CS)C(=O)N[C@@H](C(=O)N[C@H](CCCNC(=N)N)C(=O)N[C@H](CCCNC(=N)N)C(=O)N[C@H](CCCNC(=N)N)C(=O)N[C@@H](C(=O)N[C@H](CCCNC(=N)N)C(N)=O)C(C)C)C(C)C [SEQ ID NO: 65, Ac-cvrrrvr-NH2] (Ac-[dC][dV][dR][dR][dR][dV][dR]-NH2) |  | 35 µM | 
Ac-c(PEG2-C)rrrrrr-NH2 (XXXXXXX; D-residues) [SEQ ID NO: 59] |  | 0.02 µM | 

The next lines start with results.

Histamine in vitro Fold change of non-treated at 10 uM [1] | EC50 [2, 4] | Molecule | other results
 | 31 µM | CC(=O)N[C@H](CS)C(=O)N[C@H](CCC(=O)O)C(=O)N[C@H](CCCNC(=N)N)C(=O)N[C@H](CCCNC(=N)N)C(=O)N[C@H](CCCNC(=N)N)C(=O)N[C@H](C)C(=O)N[C@H](CCCNC(=N)N)C(N)=O [SEQ ID NO: 69, Ac-cerrrar-NH2] (Ac-[dC][dE][dR][dR][dR][dA][dR]-NH2) | 0.5 mg/kg IV bolus % PTH AUC of saline control (plasma PTH; [3]): 103%
5.0 fold | 5.9 µM | CC(=O)N[C@H](CS)C(=O)N[C@H](CCCNC(=N)N)C(=O)N[C@H](CCCNC(=N)N)C(=O)N[C@H](CCCNC(=N)N)C(=O)N[C@H](C)C(=O)N[C@H](CCCNC(=N)N)C(=O)N[C@H](CCCNC(=N)N)C(N)=O [SEQ ID NO: 11, Ac-crrrarr-NH2] (Ac-[dC][dR][dR][dR][dA][dR][dR]-NH2) | % PTH reduction of baseline at 1 hour post IV admin. of 0.5 mg/kg compound (plasma PTH; Table 1): 9%; 0.5 mg/kg IV bolus % PTH AUC of saline control (plasma PTH; [5]): 45%; EC50 [2, 6]: 5.9 µM
 | 1 µM | CC(=O)NCCC(=O)N[C@H](CS)C(=O)N[C@H](CCCNC(=N)N)C(=O)N[C@H](CCCNC(=N)N)C(=O)N[C@H](CCCNC(=N)N)C(=O)N[C@H](CCCNC(=N)N)C(=O)N[C@H](CCCNC(=N)N)C(=O)N[C@H](CCCNC(=N)N)C(N)=O [SEQ ID NO: 30, Ac-bAla-crrrrrr-NH2] (Ac-[βAla][dC][dR][dR][dR][dR][dR][dR]-NH2) | 0.5 mg/kg IV bolus % PTH AUC of saline control (plasma PTH; [7]): 0%
5.3 fold | 1.1 µM | CC(=O)N[C@H](CS)C(=O)N[C@H](CCCNC(=N)N)C(=O)N[C@H](CCCNC(=N)N)C(=O)N[C@H](C)C(=O)N[C@H](CCCNC(=N)N)C(=O)N[C@H](CCCNC(=N)N)C(=O)N[C@H](CCCNC(=N)N)C(N)=O [SEQ ID NO: 10, Ac-crrarrr-NH2] (Ac-[dC][dR][dR][dA][dR][dR][dR]-NH2) | duration of decreased PTH (plasma PTH; 0.5 mg/kg IV bolus, normal rats, FIG. 5): at least four hours; PTH-lowering activity in normal rats (plasma PTH; 0.5 mg/kg single IV administration): below the detection limit or essentially zero; % PTH reduction of baseline at 1 hour post IV admin. of 0.5 mg/kg compound (plasma PTH; Table 1): 0%; 0.5 mg/kg IV bolus % PTH AUC of saline control (plasma PTH; [5]): 0%; EC50 [2, 6]: 1.1 µM
 | 2 µM | CC(=O)N[C@H](CCS)C(=O)N[C@H](CCCNC(=N)N)C(=O)N[C@H](CCCNC(=N)N)C(=O)N[C@H](CCCNC(=N)N)C(=O)N[C@H](CCCNC(=N)N)C(=O)N[C@H](CCCNC(=N)N)C(=O)N[C@H](CCCNC(=N)N)C(N)=O [SEQ ID NO: 32, Ac-dHcy-rrrrrr-NH2] | 0.5 mg/kg IV bolus % PTH AUC of saline control (plasma PTH; [7]): 21%
 | 0.6 µM | CC(=O)N[C@H](CS)C(=O)N[C@H](CCCNC(=N)N)C(=O)N[C@H](CCCNC(=N)N)C(=O)N[C@H](CCCNC(=N)N)C(=O)N[C@H](CCCNC(=N)N)C(=O)N[C@H](CCCNC(=N)N)C(=O)N[C@H](CCCNC(=N)N)C(=O)N[C@H](CCCNC(=N)N)C(N)=O [SEQ ID NO: 7, Ac-crrrrrrr-NH2] (Ac-[dC][dR][dR][dR][dR][dR][dR][dR]-NH2) | 
1.4 fold | 31 µM | CC(=O)N[C@H](CS)C(=O)N[C@H](C)C(=O)N[C@H](CCCNC(=N)N)C(=O)N[C@H](CCCCN)C(=O)N[C@H](CCCNC(=N)N)C(=O)N[C@H](C)C(=O)N[C@H](CCCNC(=N)N)C(N)=O [SEQ ID NO: 73, Ac-carkrar-NH2] (Ac-[dC][dA][dR][dK][dR][dA][dR]-NH2) | 
